Results published in paper PMC6225228, “Design, Synthesis and Evaluation of N-pyrazinylbenzamides as Potential Antimycobacterial Agents” (Molecules : A Journal of Synthetic Chemistry and Natural …, 2018).
Values after ≈ are worked out from the molar mass of the structure shown. Like-named read-outs stand apart in the source and are kept apart here.

Key:
[1] = test system: Mycobacterium tuberculosis H37Rv CNCTC My 331/88 (ATCC 27294); experiment: Antimycobacterial microdilution MABA, M. tuberculosis; assay type: cell-based; settings: for MIC: Mycobacterium tuberculosis
[2] = test system: Mycobacterium smegmatis CCM 4622 (ATCC 607); experiment: Antimycobacterial microdilution, M. smegmatis; assay type: cell-based; settings: Mycolicibacterium smegmatis, read-out: M. smeg. ATCC 607 MIC
[3] = test system: M. avium ssp. avium CNCTC My 80/72 (ATCC 15769); experiment: Antimycobacterial microdilution MABA, M. avium; assay type: cell-based, Mycobacterium avium; settings: Mycobacterium avium
[4] = test system: M. kansasii CNCTC My 235/80 (ATCC 12478); experiment: Antimycobacterial microdilution MABA, M. kansasii; assay type: cell-based, Mycobacterium kansasii; settings: Mycobacterium kansasii
[5] = test system: Enterococcus sp. J 14365/08; experiment: Antibacterial microdilution broth, EF; assay type: cell-based; settings: Enterococcus, read-out: MIC EF
[6] = test system: Aspergillus fumigatus 231; experiment: Antifungal microdilution broth, AF; assay type: cell-based; settings: read-out: MIC AF
Candida krusei E28 = experiment: Antifungal microdilution broth, CK; assay type: cell-based; settings: Pichia kudriavzevii, read-out: MIC CK
Candida tropicalis 156 = experiment: Antifungal microdilution broth, CT; assay type: cell-based; settings: read-out: MIC CT
[7] = test system: Lichtheimia corymbifera 272; experiment: Antifungal microdilution broth, LC; assay type: cell-based; settings: read-out: MIC LC
Candida glabrata 20/I = experiment: Antifungal microdilution broth, CG; assay type: cell-based; settings: Nakaseomyces glabratus, 20/I, read-out: MIC CG
[8] = test system: Staphylococcus aureus H 5996/08 methicillin resistant; experiment: microbe, parasite or virus in culture; assay type: cell-based; settings: for MIC: Staphylococcus aureus, MRSA, read-out: MIC MRSA
[9] = test system: Candida albicans ATCC 44859; experiment: Antifungal microdilution broth, CA; assay type: cell-based; settings: Candida albicans, read-out: MIC CA
[10] = test system: Staphylococcus epidermidis H 6966/08; experiment: Antibacterial microdilution broth, SE; assay type: cell-based; settings: read-out: MIC SE
[11] = test system: Staphylococcus aureus CCM 4516/08; experiment: Antibacterial microdilution broth, SA; assay type: cell-based
[12] = test system: Escherichia coli CCM 4517; experiment: Antibacterial microdilution broth, EC; assay type: cell-based; settings: Escherichia coli, read-out: MIC EC
[13] = test system: Trichophyton interdigitale 445; experiment: Antifungal microdilution broth, TI; assay type: cell-based; settings: read-out: MIC TI
Trichosporon asahii 1188 = experiment: Antifungal microdilution broth, TA; assay type: cell-based; settings: read-out: MIC TA
[14] = test system: Pseudomonas aeruginosa CCM 1961; experiment: Antibacterial microdilution broth, PA; assay type: cell-based; settings: Pseudomonas aeruginosa, read-out: MIC PA
[15] = Middlebrook 7H9 with OADC growth supplement, pH = 6.6, MABA
[16] = Middlebrook 7H9 with OADC growth supplement, pH = 6.6, MABA, read-out: Mtb H37Rv ATCC 27294 MIC
[17] = Middlebrook 7H9 with OADC, resazurin
[18] = ATCC15769, Middlebrook 7H9 with OADC, pH 6.6, MABA, read-out: M. avium ATCC 15769 MIC
[19] = ATCC12478, Middlebrook 7H9 with OADC, pH 6.6, MABA, read-out: M. kans. ATCC 12478 MIC
[20] = Aspergillus fumigatus, 231, 24 h
[21] = Aspergillus fumigatus, 231, 48 h
[22] = read-out: Mtb H37Rv ATCC 27294 MIC, Middlebrook 7H9 with OADC growth supplement, pH = 6.6, MABA
[23] = Lichtheimia corymbifera, 272, 24 h
[24] = Lichtheimia corymbifera, 272, 48 h
[25] = ATCC15769, pH 6.6, read-out: M. avium ATCC 15769 MIC
[26] = Staphylococcus epidermidis, H6966/08, 24 h
[27] = Staphylococcus epidermidis, H6966/08, 48 h
[28] = Staphylococcus aureus, CCM4516, 24 h, read-out: MIC SA, 24 h
[29] = Staphylococcus aureus, CCM4516, 48 h, read-out: MIC SA, 48 h
[30] = ATCC12478, pH 6.6, read-out: M. kans. ATCC 12478 MIC, Middlebrook 7H9 with OADC, pH 6.6, MABA
[31] = Trichophyton interdigitale, 445, 72 h
[32] = Trichophyton interdigitale, 445, 120 h
[33] = Trichosporon asahii, 1188, 24 h
[34] = Trichosporon asahii, 1188, 48 h

Row | Structure (SMILES) | Mtb H37Rv ATCC 27294 MIC [1, 15] | MIC ([5]; SP.J14365/08, 24 h) | MIC ([5]; SP.J14365/08, 48 h) | MIC [6, 20] | MIC [6, 21] | MIC [1, 22] | MIC [2] | MIC (Candida krusei E28; E28, 24 h) | MIC (Candida krusei E28; E28, 48 h) | MIC (Candida tropicalis 156; Candida tropicalis, 156, 24 h) | MIC (Candida tropicalis 156; Candida tropicalis, 156, 48 h) | MIC [7, 23] | MIC [7, 24] | MIC (Candida glabrata 20/I; 24 h) | MIC (Candida glabrata 20/I; 48 h) | MIC [3, 25] | MIC ([8]; 24 h) | MIC ([8]; 48 h) | MIC ([9]; ATCC44859, 24 h) | MIC ([9]; ATCC44859, 48 h) | also measured
1 | O=C(Nc1cncc(Cl)n1)c1ccc(Cl)cc1 [Compound 3l] | >100 µg/mL |  |  |  |  |  |  |  |  |  |  |  |  |  |  |  |  |  |  |  | MIC [1, 16]: > 100 µg/mL; MIC [2, 17]: ≥ 500 µg/mL; MIC [3, 18]: > 100 µg/mL; MIC [4, 19]: > 100 µg/mL; melting point: 193.8 to 194.7 °C
2 | O=C(Nc1cnccn1)c1cccc(C(F)(F)F)c1 [Compound 1n] | >100 µg/mL | > 125 µM | > 125 µM | > 125 µM | > 125 µM | > 100 µg/mL | ≥ 500 µg/mL | > 125 µM | > 125 µM | > 125 µM | > 125 µM | > 125 µM | > 125 µM | > 125 µM | > 125 µM | > 100 µg/mL | > 125 µM | > 125 µM | > 125 µM | > 125 µM | MIC MRSA ([8]; 24 h): >125 µM; MIC MRSA ([8]; 48 h): >125 µM; MIC ([10]; 24 h): 62.50 µM (≈ 16.7 µg/mL); MIC ([10]; 48 h): 62.50 µM (≈ 16.7 µg/mL); MIC [10, 26]: 62.5 µM (≈ 16.7 µg/mL); MIC [10, 27]: 62.5 µM (≈ 16.7 µg/mL); MIC ([11]; 24 h, read-out: MIC SA): >125 µM; MIC ([11]; 48 h, read-out: MIC SA): >125 µM; MIC [11, 28]: > 125 µM; MIC [11, 29]: > 125 µM; MIC [4, 30]: > 100 µg/mL; MIC ([12]; CCM4517, 24 h): > 125 µM; MIC ([12]; CCM4517, 48 h): > 125 µM; MIC [13, 31]: > 125 µM; MIC [13, 32]: > 125 µM; MIC (Trichosporon asahii 1188; [33]): > 125 µM; MIC (Trichosporon asahii 1188; [34]): > 125 µM; MIC ([14]; CCM1961, 72 h): > 125 µM; MIC ([14]; CCM1961, 120 h): > 125 µM
3 | CCc1ccc(C(=O)Nc2cnccn2)cc1 [Compound 1i] |  | 500 µM (≈ 114 µg/mL) | 500 µM (≈ 114 µg/mL) | > 500 µM | > 500 µM | > 100 µg/mL | ≥ 500 µg/mL | > 500 µM | > 500 µM | > 500 µM | > 500 µM | > 500 µM | > 500 µM | > 500 µM | > 500 µM | > 100 µg/mL | > 500 µM | > 500 µM | > 500 µM | > 500 µM | MIC [10, 26]: 500 µM (≈ 114 µg/mL); MIC [10, 27]: 500 µM (≈ 114 µg/mL); MIC [11, 28]: > 500 µM; MIC [11, 29]: > 500 µM; MIC [4, 30]: > 100 µg/mL; MIC ([12]; CCM4517, 24 h): > 500 µM; MIC ([12]; CCM4517, 48 h): > 500 µM; MIC [13, 31]: > 500 µM; MIC [13, 32]: > 500 µM; MIC (Trichosporon asahii 1188; [33]): > 500 µM; MIC (Trichosporon asahii 1188; [34]): > 500 µM; MIC ([14]; CCM1961, 72 h): > 500 µM; MIC ([14]; CCM1961, 120 h): > 500 µM
4 | COc1ccc(C(=O)Nc2cncc(Cl)n2)cc1 [Compound 3g] |  |  |  |  |  |  |  |  |  |  |  |  |  |  |  |  |  |  |  |  | MIC [1, 16]: > 100 µg/mL; MIC [2, 17]: ≥ 500 µg/mL; MIC [3, 18]: > 100 µg/mL; MIC [4, 19]: > 100 µg/mL; melting point: 196.9 to 198.8 °C
5 | O=C(Nc1cncc(Cl)n1)c1ccccc1Cl [Compound 3j] | >100 µg/mL | > 500 µM | > 500 µM | > 500 µM | > 500 µM | > 100 µg/mL | ≥ 500 µg/mL | > 500 µM | > 500 µM | > 500 µM | > 500 µM | > 500 µM | > 500 µM | > 500 µM | > 500 µM | > 100 µg/mL | > 500 µM | > 500 µM | > 500 µM | > 500 µM | MIC [10, 26]: > 500 µM; MIC [10, 27]: > 500 µM; MIC [11, 28]: > 500 µM; MIC [11, 29]: > 500 µM; MIC [4, 30]: > 100 µg/mL; MIC ([12]; CCM4517, 24 h): > 500 µM; MIC ([12]; CCM4517, 48 h): > 500 µM; MIC [13, 31]: > 500 µM; MIC [13, 32]: > 500 µM; MIC (Trichosporon asahii 1188; [33]): > 500 µM; MIC (Trichosporon asahii 1188; [34]): > 500 µM; MIC ([14]; CCM1961, 72 h): > 500 µM; MIC ([14]; CCM1961, 120 h): > 500 µM
